As a reminder, the IC50 is the concentration needed to halve the response being measured. Read a high IC50 as lower potency.

SMILES strings stand for the structures. Where two headings read alike, the source gives them in different places. Some results are limits rather than exact numbers.

Experimental findings from patent US11021457B2, “Class of isoindolone-imide ring-1,3-dione-2-ene compounds, composition and use thereof” (WIGEN BIOMEDICINE TECHNOLOGY (SHANGHAI) CO., LTD., priority 2017, dated 2021) are described below.

For one assay, the system named is RPMI-8226. Nature of the assay: Inhibition of tumor cell proliferation, CellTiter-Glo, RPMI-8226. It counts as cell-based. To be noted: compound concentration 50 μM, 72 hours; for cell survival rate (% of control) at 50 µM: Homo sapiens, RPMI-8226, read-out: Inhibitory activity against proliferation (cell survival rate) RPMI-8226. The gist of the method:
(§1)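 Compound tested at 50 μM for 72 h, read by CellTiter-Glo. Survival rate = (treated−blank)/(control−blank) RLU ×100, binned as +++ ≤30%, ++ >30-≤60%, + 60-<90%. Seeding 2000-10000 cells/well depending on growth rate.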
In general terms: ATP-based viability assays read luminescence as a measure of living cells.

Another assay deals with SU-DHL6. Description: Inhibition of tumor cell proliferation, CellTiter-Glo, SU-DHL6. Type of assay: cell-based. As to conditions: compound concentration 50 μM, 72 hours; for cell survival rate (% of control) at 50 µM: Homo sapiens, SU-DHL-6, read-out: Inhibitory activity against proliferation (cell survival rate) SU-DHL6. The gist of the method: as §1
The test system of another assay is BxPC-3. Nature of the assay: Inhibition of tumor cell proliferation, CellTiter-Glo, BxPC-3. It counts as cell-based. To be noted: compound concentration 50 μM, 72 hours; for cell survival rate (%) at 50 µM: Homo sapiens, BXPC-3, read-out: Inhibitory activity against proliferation (cell survival rate) BxPC-3. The gist of the method:
as §1

The next assay has as its target LC3B (Homo sapiens (Human), UniProt Q9GZQ8). Description: Fluorescence polarization experiment targeting LC3B (GST-LC3B with FITC-labeled peptide). (Fluorescence polarisation rises when a labelled molecule tumbles more slowly, as on binding a larger partner.)
The next assay has as its system K562. Description: Inhibition of tumor cell proliferation, CellTiter-Glo, K562. To be noted: compound concentration 50 μM, 72 hours; for cell survival rate (%) at 50 µM: Homo sapiens, K562, read-out: Inhibitory activity against proliferation (cell survival rate) K562. Type of assay: cell-based. The gist of the method: as §1
The next assay concerns MDA-MB-453. Description: Inhibition of tumor cell proliferation, CellTiter-Glo, MDA-MB-453. Type of assay: cell-based. To be noted: compound concentration 50 μM, 72 hours; for cell survival rate (%) at 50 µM: Homo sapiens, MDA-MB-453, read-out: Inhibitory activity against proliferation (cell survival rate) MDA-MB-453. An outline of the steps:
as §1

Another assay concerns A549. Description: Inhibition of tumor cell proliferation, CellTiter-Glo, A549. Type of assay: cell-based. As to conditions: compound concentration 50 μM, 72 hours; for cell survival rate (% of control) at 50 µM: Homo sapiens, A549, read-out: Inhibitory activity against proliferation (cell survival rate) A549. An outline of the steps:
as §1

Setting [1] is: GST-LC3B 180 nM, FITC-labeled peptide 18 nM, 25° C.

For the compound `CC(C)[C@H](NC(=O)CN1CCN(CCNC=C2C(=O)CC(c3ccccc3)CC2=O)CC1)C(=O)N[C@@H](CCCNC(N)=O)C(=O)Nc1cccc2c1CN(C1CCC(=O)NC1=O)C2=O` (stereo partly drawn) [Compound 60], the “Inhibitory activity against proliferation (cell survival rate) RPMI-8226” value in the assay on RPMI-8226 is “+++ (survival rate (%)≤30)”. Moreover, the “Inhibitory activity against proliferation (cell survival rate) SU-DHL6” value with SU-DHL6 is listed as “++ (30<survival rate (%)≤60)”. Also, the “Inhibitory activity against proliferation (cell survival rate) BxPC-3” value with BxPC-3 was “++ (30<survival rate (%)≤60)”. This compound also gave a half-maximal inhibitory concentration (IC50) at LC3B (setting [1]) of 15 to 100 µM. For the same compound, the “Inhibitory activity against proliferation (cell survival rate) K562” value in the assay with K562 is given as “+ (60≤survival rate (%)<90)”. In addition, in the assay with MDA-MB-453, the “Inhibitory activity against proliferation (cell survival rate) MDA-MB-453” value is recorded as “+ (60≤survival rate (%)<90)”.
Regarding `O=C1CCC(N2C(=O)c3cccc(NC(=O)[C@@H]4C[C@H](O)CN4CCNC=C4C(=O)CC(c5ccccc5)CC4=O)c3C2=O)C(=O)N1` (stereo partly drawn) [Compound 64], the “Inhibitory activity against proliferation (cell survival rate) RPMI-8226” value in the assay with RPMI-8226 is reported as “++ (30<survival rate (%)≤60)”. Besides, the “Inhibitory activity against proliferation (cell survival rate) SU-DHL6” value with SU-DHL6 was “+++ (survival rate (%)≤30)”. For the same compound, the “Inhibitory activity against proliferation (cell survival rate) BxPC-3” value with BxPC-3 is on record as “+ (60≤survival rate (%)<90)”. The concentration for half-maximal inhibition (IC50) against LC3B (setting [1]) was 15 to 100 µM. In addition, in the assay on K562, the “Inhibitory activity against proliferation (cell survival rate) K562” value is given as “+++ (survival rate (%)≤30)”. In addition, the “Inhibitory activity against proliferation (cell survival rate) MDA-MB-453” value with MDA-MB-453 was “+++ (survival rate (%)≤30)”.
Take `CC(Nc1cccc2c1C(=O)N(C1CCC(=O)NC1=O)C2=O)=C1C(=O)CC(c2ccccc2)CC1=O` (stereo not drawn) [Compound 76]: the “Inhibitory activity against proliferation (cell survival rate) RPMI-8226” value with RPMI-8226 is on record as “+++ (survival rate (%)≤30)”. In addition, the “Inhibitory activity against proliferation (cell survival rate) SU-DHL6” value with SU-DHL6 was “+++ (survival rate (%)≤30)”. Besides, in the assay with BxPC-3, the “Inhibitory activity against proliferation (cell survival rate) BxPC-3” value is reported as “++ (30<survival rate (%)≤60)”. The same compound displayed an IC50 on LC3B (setting [1]) of 100 to 1000 µM. Besides, the “Inhibitory activity against proliferation (cell survival rate) K562” value in the assay with K562 is listed as “+++ (survival rate (%)≤30)”. In the assay on A549, the “Inhibitory activity against proliferation (cell survival rate) A549” value was “+++ (survival rate (%)≤30)”.
For the compound `CN1C(=O)/C(=C\Nc2cccc3c2CN(C2CCC(=O)NC2=O)C3=O)C(=O)c2ccc(C(F)(F)F)cc21` (stereo not drawn) [Compound 136], the cell survival rate (% of control) at 50 µM in the assay on RPMI-8226 is ≤ 30%; in the assay with SU-DHL6, 60 to 90%. Also, the cell survival rate (%) at 50 µM is 60 to 90% with BxPC-3, 30 to 60% in the assay on K562 and ≤ 30% with MDA-MB-453. Further, the IC50 at LC3B is 3 to 15 µM.
In the case of `O=C1CCC(N2Cc3c(N/C=C4\C(=O)Nc5cc(C(F)(F)F)ccc5C4=O)cccc3C2=O)C(=O)N1` (stereo not drawn) [Compound 137], the cell survival rate (% of control) at 50 µM was ≤ 30% with RPMI-8226, ≤ 30% in the assay with SU-DHL6 and 60 to 90% in the assay on A549. For the same compound, the cell survival rate (%) at 50 µM lay in the range of 30 to 60% in the assay on BxPC-3, 30 to 60% with K562 and 60 to 90% with MDA-MB-453.
As for `O=C1CCC(N2Cc3c(N/C=C4\C(=O)Nc5c(ccc6ccccc56)C4=O)cccc3C2=O)C(=O)N1` (stereo not drawn) [Compound 138], the results for the cell survival rate (% of control) at 50 µM in the assay with RPMI-8226, in the assay on SU-DHL6 and with A549 were 30 to 60%, ≤ 30% and ≤ 30%, respectively. Also, the figures for the cell survival rate (%) at 50 µM in the assay with BxPC-3, with K562 and in the assay with MDA-MB-453 were 60 to 90%, 30 to 60% and ≤ 30%, respectively.
With `CC1(C#N)C(=O)/C(=C/Nc2cccc3c2CN(C2CCC(=O)NC2=O)C3=O)C(=O)CC1c1ccccc1` (stereo not drawn) [Compound 139], the figures for the cell survival rate (% of control) at 50 µM in the assay with RPMI-8226, with SU-DHL6 and with A549 were ≤ 30%, ≤ 30% and 60 to 90%, respectively. The cell survival rate (%) at 50 µM in the assay on BxPC-3 was 60 to 90%; in the assay with K562, ≤ 30%; with MDA-MB-453 it was ≤ 30%.
